Results on two compounds are retold here after patent publication US20090234019A1, “T Type Calcium Channel Inhibitors” (priority 2004, published 2009).

Molecules are shown by their SMILES. Where two headings read alike, the source gives them in different places.

The subject of one experiment is Jurkat cells. The experiment in a line: Inhibition of proliferation of Jurkat cells. The format is cell-based, human. The settings on record: Jurkat, 48 hrs, read-out: IC50 of TH-1177 for inhibition of proliferation. On the procedure: (§1) Cancer cell lines were obtained from the American Type Culture Collection (Manassas, Va.). Cell lines were maintained in RPMI1640 supplemented with glutamine and 5% fetal bovine serum containing SerXtend (Irvine Scientific) when appropriate insulin, as directed by the ATCC. The fetal bovine serum used for culture was heat-inactivated by maintaining the serum at 56° C. for 1 h. Cell lines used were a T celleukemia (Jurkat), prostate cancer (PC3, DU145, LNCAP), breast cancer (MDA468, MDA361, MCF7), pancreatic cancer (MIA PaCa2), liver cancer (Hep G2), lung cancer (A549, NCl H460), colon cancer (HT29, HCT 116), and ovarian cancer (SK-OV-3).
(§2) LNCaP cells at 2.5×10^4 cells/well or PC-3 cells at 5×10^4 cells/well, both in a final volume of […], were plated in triplicate in standard flat-bottomed 96-well tissue culture plates in the presence of drug or vehicle (DMSO). Unless otherwise indicated, cells were grown for 48 h at 37° C. in a CO2 incubator. Relative cell growth was determined with the CellTiter 96 aqueous cell proliferation assay (Promega, Madison, Wis.) as described by the manufacturer using an automated plate reader. Results were calculated in a blinded fashion and are the means of triplicate determinations.

The subject of experiment [1] is HEK293 cells stably transfected the α1H gene. The experiment is described as follows: Proliferation of HEK293 cells stably transfected with α1H. The settings on record: FIG. 5. Format: cell-based.
The next experiment deals with PC3 cells. The experiment is described as follows: Inhibition of proliferation of PC3 cells. Format: cell-based, human. The note with it: FIG. 6 panel B; read-out: IC50, proliferation of PC3 human prostate cancer cells. On the procedure: as §1, §2
Experiment [2] has as its target T1, α1H isoform of T type Ca2+ channels (Homo sapiens, UniProt O95180).
T1 construct: expressed in transfected cells; host or cells: HEK293 (stably transfected)
The experiment is described as follows: Inhibition of Ca2+ current through transfected α1H channels. Format: cell-based. The note with it: FIG. 7.

Experiment [3] has as its system human PC3 prostate cancer cells. The note with it: xenografted PC3, Haverstick et al. 2000; cited from earlier work.

T1 sequence (O95180 whole entry, canonical isoform): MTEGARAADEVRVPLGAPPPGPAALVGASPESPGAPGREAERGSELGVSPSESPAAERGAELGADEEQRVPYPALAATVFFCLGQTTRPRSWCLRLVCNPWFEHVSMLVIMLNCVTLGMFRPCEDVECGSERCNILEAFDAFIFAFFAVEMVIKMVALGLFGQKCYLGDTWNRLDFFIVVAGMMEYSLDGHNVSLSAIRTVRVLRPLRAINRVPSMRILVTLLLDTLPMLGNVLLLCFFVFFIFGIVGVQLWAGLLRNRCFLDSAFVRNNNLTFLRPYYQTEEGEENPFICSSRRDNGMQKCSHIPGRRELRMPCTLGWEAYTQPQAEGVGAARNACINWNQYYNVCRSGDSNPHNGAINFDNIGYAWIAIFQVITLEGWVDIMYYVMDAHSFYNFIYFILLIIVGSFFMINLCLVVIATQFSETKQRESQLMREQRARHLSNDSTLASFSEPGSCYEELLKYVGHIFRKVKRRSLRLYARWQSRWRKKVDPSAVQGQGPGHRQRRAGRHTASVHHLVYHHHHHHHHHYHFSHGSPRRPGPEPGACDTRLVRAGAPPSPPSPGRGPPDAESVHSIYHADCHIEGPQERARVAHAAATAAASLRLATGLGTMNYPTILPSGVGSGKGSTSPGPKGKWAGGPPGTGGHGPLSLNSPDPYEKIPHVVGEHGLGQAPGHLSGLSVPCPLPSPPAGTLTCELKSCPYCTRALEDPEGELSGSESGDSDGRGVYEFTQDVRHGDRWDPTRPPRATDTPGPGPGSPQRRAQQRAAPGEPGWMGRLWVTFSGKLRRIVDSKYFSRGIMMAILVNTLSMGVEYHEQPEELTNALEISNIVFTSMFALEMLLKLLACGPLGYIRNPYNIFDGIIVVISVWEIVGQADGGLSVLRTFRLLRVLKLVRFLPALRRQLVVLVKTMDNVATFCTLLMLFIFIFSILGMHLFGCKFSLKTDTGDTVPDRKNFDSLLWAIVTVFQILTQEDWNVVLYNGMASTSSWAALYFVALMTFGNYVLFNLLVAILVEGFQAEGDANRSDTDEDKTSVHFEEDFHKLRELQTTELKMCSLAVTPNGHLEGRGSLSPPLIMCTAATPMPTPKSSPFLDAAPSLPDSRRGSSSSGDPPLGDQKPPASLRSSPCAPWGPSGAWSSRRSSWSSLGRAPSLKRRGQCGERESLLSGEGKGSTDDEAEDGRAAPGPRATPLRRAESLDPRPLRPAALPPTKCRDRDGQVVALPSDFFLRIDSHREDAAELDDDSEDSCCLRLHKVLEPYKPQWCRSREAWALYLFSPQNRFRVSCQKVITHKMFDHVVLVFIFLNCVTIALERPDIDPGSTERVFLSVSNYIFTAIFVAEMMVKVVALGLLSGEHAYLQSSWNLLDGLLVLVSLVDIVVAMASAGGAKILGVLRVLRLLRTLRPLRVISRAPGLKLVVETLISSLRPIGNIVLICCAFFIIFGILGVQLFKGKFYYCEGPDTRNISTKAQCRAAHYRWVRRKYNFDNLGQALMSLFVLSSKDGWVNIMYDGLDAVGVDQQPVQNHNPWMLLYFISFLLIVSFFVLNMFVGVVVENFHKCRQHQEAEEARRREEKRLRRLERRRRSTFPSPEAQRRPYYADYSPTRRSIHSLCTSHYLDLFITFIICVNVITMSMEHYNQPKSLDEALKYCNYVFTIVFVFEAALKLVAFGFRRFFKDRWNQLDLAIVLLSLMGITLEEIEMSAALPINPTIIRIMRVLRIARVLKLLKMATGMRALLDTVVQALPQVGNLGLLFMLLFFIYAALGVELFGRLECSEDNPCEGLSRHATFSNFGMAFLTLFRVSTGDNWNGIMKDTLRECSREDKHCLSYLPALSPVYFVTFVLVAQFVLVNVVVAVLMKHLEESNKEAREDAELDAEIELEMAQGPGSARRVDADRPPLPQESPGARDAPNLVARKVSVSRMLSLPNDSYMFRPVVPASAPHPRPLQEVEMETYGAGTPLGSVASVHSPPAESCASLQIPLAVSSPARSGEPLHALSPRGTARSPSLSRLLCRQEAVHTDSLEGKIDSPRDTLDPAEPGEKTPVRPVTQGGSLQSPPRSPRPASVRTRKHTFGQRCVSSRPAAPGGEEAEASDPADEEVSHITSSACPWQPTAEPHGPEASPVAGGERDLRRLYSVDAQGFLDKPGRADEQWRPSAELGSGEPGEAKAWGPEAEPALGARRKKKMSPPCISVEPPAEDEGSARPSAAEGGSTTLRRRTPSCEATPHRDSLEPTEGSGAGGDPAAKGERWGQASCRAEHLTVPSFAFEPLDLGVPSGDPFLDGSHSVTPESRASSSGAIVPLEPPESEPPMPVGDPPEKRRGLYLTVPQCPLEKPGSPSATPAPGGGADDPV

For the compound `COc1ccc(CCN2CCC[C@H]2COC(c2ccccc2)c2ccc(Cl)cc2)cc1` (some centres unmarked) [TH-1177], the IC50 turned out to be 17.8 µM with Jurkat cells (in the absence of ionomycin), 4.6 µM in the experiment on Jurkat cells (in the presence of 30 uM ionomycin), 14 µM in the experiment on PC3 cells and 0.8 µM in experiment [2]. Also, the “proliferation of stably transfected HEK293 cells” value in experiment [1] is given as “inhibits proliferation”. For the same compound, in experiment [3], the “lifespan of nude mice inoculated with human PC3 prostate cancer cells” value is given as “significantly extended the lifespan”.

As for `COc1ccc(CCN2CCCC2COC(c2ccccc2)c2ccc(Cl)cc2)cc1` (centres unmarked) [TH-1211], the IC50 stood at 42 µM in the experiment with PC3 cells and 7 µM in experiment [2].
